Assay results from patent US20250115576A1, “THERAPEUTIC COMPOUNDS AND METHODS OF USE THEREOF” (Genentech, Inc., priority 2018, published 2025).
Counter-ions that a name gives are not always drawn.

The compounds below were run against hNav1.7 (Homo sapiens (Human), UniProt Q15858) (assay: Patch voltage clamp electrophysiology (EP), Syncropatch 384PE, CHO cells stably expressing Nav1.7). Conditions: holding potential −50 mV, 7.5 min compound incubation, read-out: EP_SP hNav1.7 EVO IC50.
hNav1.7, sequence (Q15858 other isoform, or with tags, fused parts or gaps): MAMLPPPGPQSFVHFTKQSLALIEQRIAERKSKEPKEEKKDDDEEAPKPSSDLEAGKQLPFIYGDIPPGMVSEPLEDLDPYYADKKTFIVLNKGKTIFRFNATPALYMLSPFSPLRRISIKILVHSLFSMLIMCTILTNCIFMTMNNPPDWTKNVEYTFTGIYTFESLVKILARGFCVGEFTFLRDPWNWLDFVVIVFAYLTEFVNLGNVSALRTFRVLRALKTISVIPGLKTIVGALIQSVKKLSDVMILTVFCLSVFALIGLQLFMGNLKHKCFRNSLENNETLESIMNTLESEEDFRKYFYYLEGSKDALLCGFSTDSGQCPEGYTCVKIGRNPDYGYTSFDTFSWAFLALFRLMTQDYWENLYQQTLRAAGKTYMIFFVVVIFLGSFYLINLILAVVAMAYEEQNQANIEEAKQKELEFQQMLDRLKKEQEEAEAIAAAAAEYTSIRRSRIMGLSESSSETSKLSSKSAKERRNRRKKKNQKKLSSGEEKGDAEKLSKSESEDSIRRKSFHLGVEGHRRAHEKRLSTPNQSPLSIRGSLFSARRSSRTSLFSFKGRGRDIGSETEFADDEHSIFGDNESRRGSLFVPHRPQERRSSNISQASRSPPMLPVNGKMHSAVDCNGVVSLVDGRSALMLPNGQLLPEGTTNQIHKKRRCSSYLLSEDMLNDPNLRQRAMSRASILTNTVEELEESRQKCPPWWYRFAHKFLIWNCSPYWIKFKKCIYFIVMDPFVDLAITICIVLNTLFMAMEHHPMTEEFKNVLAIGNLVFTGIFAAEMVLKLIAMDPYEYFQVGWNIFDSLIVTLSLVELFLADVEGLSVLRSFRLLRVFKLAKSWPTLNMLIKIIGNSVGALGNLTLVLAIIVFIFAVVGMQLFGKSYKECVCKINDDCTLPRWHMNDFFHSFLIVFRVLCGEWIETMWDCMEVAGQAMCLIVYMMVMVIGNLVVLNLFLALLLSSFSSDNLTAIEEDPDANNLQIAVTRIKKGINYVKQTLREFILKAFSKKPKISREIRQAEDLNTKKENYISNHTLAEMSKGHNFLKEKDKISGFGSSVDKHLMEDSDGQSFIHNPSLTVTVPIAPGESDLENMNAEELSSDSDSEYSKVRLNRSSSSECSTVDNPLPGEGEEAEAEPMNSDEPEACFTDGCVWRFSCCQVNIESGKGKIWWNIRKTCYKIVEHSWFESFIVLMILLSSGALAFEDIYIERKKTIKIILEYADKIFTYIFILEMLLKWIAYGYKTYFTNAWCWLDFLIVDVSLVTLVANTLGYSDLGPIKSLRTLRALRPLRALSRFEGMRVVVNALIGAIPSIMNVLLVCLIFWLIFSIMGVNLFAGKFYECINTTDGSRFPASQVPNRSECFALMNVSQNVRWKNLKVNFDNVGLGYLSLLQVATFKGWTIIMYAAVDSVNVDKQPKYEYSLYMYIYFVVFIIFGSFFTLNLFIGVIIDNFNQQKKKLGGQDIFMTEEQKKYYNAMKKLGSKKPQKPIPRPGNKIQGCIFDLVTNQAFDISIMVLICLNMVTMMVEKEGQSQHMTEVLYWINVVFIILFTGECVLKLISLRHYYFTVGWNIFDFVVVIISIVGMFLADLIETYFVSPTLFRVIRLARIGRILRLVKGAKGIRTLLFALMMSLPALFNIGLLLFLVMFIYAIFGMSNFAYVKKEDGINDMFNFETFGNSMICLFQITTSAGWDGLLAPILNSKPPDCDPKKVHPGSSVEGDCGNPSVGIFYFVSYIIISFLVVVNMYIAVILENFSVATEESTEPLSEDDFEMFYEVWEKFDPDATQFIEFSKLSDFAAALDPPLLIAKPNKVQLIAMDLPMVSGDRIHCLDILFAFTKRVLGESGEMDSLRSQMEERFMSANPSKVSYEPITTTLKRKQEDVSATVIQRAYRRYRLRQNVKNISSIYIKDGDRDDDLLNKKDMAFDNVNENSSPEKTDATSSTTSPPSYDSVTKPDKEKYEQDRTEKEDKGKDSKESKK
Type: cell-based
Excerpt: Example 64c. Electrophysiological Assay (EP) (In Vitro Assay)
Patch voltage clamp electrophysiology allows for the direct measurement and quantification of block of voltage-gated sodium channels (NaV's), and allows the determination of the time- and voltage-dependence of block which has been interpreted as differential binding to the resting, open, and inactivated states of the sodium channel (Hille, B., Journal of General Physiology (1977), 69: 497-515).
The following voltage clamp electrophysiology studies are performed on representative compounds using cells heterologously expressing Nav1.7 or Nav1.5 channels. cDNAs for Nav1.7 (NM_002977) and Nav1.5 (AC137587) are stably expressed in Chinese Hamstr Ovary (CHO) cells and CHL (Chinese Hamster Lung) cells respectively. Sodium currents are measured in the whole-cell configuration using Syncropatch 384PE (Nanlon Technologies, Germany). 1NPC®-384 chips with custom medium resistance and single hole mode are used. Internal solution consists of (in mM): […], 10 CsCl, 20 EGTA, and 10 Hepes (pH adjusted to 7.2); and external solution contains (in mM): 60 NMDG, 80 NaCl, 4 KCl, 1 MgCl2, 2 CaCl2, 2 D-Glucose monohydrate, 10 Hepes (pH adjusted to 7.4 with NaOH).
After system flushing, testing compounds are dissolved in external solution containing 0.1% Pluronic F-127. The chip is moved into the measuring head and the instrument primes the chip with external and internal solutions. 10 μl cells are added to the chip from a cell hotel, and a negative pressure of −50 mBar is applied to form a seal. Following treatment with seal enhancer solution and wash-off with external solution, negative pressure of −250 mbar is applied for 1 second to achieve the whole-cell configuration, followed by three washing steps in external solution. 20 μl of compounds is added to 40 μl in each well (1:3 dilution of compounds), and after mixing, 20 μl is removed so the volume is retained at 40 ul. After approximately 13 minutes recordings, 20 μl/well of 2 uM TTX, or 333 uM Tetracaine (for […]) is added to achieve full block.
For voltage protocol, an holding potential of −50 mV is applied during the whole experiment. A depolarizing step is applied to −10 mV for 10 ms, followed by a hyperpolarization step to −150 mV for 20 ms to allow channel recovery from inactivation. A second depolarizing step is applied from −150 mV to −10 mV for 10 ms, where currents are measured to derive blocking effects of compounds. Inhibition is determined based on 7.5 min of compound incubation.
Cc1ccc([C@H]2CC[C@H](Oc3ccc(S(=O)(=O)Nc4ccncn4)c(C)n3)[C@@H](N(C)C)C2)cc1C(F)(F)F [Example 56, 6-(((1S,2S,4S)-2-(dimethyl-amino)-4-(4-methyl-3-(trifluoromethyl)phenyl)-cyclohexyl)oxy)-2-methyl-N-(pyrimidin-4-yl)pyridine-3-sulfonamide formate] showed an IC50 of 130 pM.
Cc1cc(S(=O)(=O)Nc2ccncn2)cnc1O[C@H]1CC[C@H](c2cccc(C(F)(F)F)c2)C[C@@H]1N(C)C [Example 15, 6-(((1S,2S,4S)-2-(Dimethylamino)-4-(3-(trifluoromethyl)phenyl)cyclohexyl)oxy)-5-methyl-N-(pyrimidin-4-yl)pyridine-3-sulfonamide] showed an IC50 of 4230 pM.
In the case of Cc1nc(O[C@H]2CC[C@H](c3ccc(Cl)c(C(F)(F)F)c3)C[C@@H]2N(C)C)ccc1S(=O)(=O)Nc1ccncn1 [Example 36, 6-(((1S,2S,4S)-4-(4-chloro-3-(trifluoromethyl)phenyl)-2-(dimethylamino)cyclohexyl)oxy)-2-methyl-N-(pyrimidin-4-yl)pyridine-3-sulfonamide], the IC50 is reported as 247 pM.
CN(C)[C@H]1C[C@@H](c2cccc(SC(F)(F)F)c2)CC[C@@H]1Oc1ccc(S(=O)(=O)Nc2ccncn2)cn1 [Example 63, 6-(((1S,2S,4S)-2-(dimethy-lamino)-4-(3-((trifluoro-methyl)thio)phenyl)cyclohexyl)oxy)-N-(pyrimidin-4-yl) pyridine-3-sulfonamide] gave an IC50 of 1050 pM.
Cc1nc(O[C@H]2CC[C@H](c3cccc(C(F)(F)F)c3)C[C@@H]2N(C)C)c(F)cc1S(=O)(=O)Nc1ccncn1 [Example 53, 6-(((1S,2S,4S)-2-(Dimethylamino)-4-(3-(trifluoromethyl)phenyl)cyclohexyl)oxy)-5-fluoro-2-methyl-N-(pyrimidin-4-yl)pyridine-3-sulfonamide formate] was tested, and the IC50 was 989 pM.
Compound Cc1nc(O[C@H]2CC[C@H](c3cc(C(F)(F)F)ccc3F)C[C@@H]2N(C)C)ccc1S(=O)(=O)Nc1ccncn1 [Example 43, 6-(((1S,2S,4S)-2-(Dimethylamino)-4-(2-fluoro-5-(trifluoromethyl)phenyl)cyclohexyl)oxy)-2-methyl-N-(pyrimidin-4-yl)pyridine-3-sulfonamide formate] has an IC50 of 687 pM.
In the case of CN(C)[C@H]1C[C@@H](c2cccc(C(F)(F)F)c2)CC[C@@H]1Oc1ccc(S(=O)(=O)Nc2ccncn2)c(Cl)n1 [Example 22, 2-Chloro-6-(((1S,2S,4S)-2-(dimethylamino)-4-(3-(trifluoromethyl)phenyl)cyclohexyl)oxy)-N-(pyrimidin-4-yl)pyridine-3-sulfonamide], the IC50 is reported as 2210 pM.
CN(C)[C@H]1C[C@@H](c2cccc(C(F)(F)F)c2)CC[C@@H]1Oc1ncc(S(=O)(=O)Nc2ccncn2)cc1C1CC1 [Example 7, 5-Cyclopropyl-6-(((1S,2S,4S)-2-(dimethylamino)-4-(3-(trifluoromethyl)phenyl)cyclohexyl)oxy)-N-(pyrimidin-4-yl)pyridine-3-sulfonamide formate] showed an IC50 of 1160 pM.
Cc1nc(O[C@H]2CC[C@H](c3cccc(C(F)(F)F)c3C)C[C@@H]2N(C)C)ccc1S(=O)(=O)Nc1ccncn1 [Example 60, 6-(((1S,2S,4S)-2-(dimethyl-amino)-4-(2-methyl-3-(trifluoromethyl)phenyl)-cyclohexyl)oxy)-2-methyl-N-(pyrimidin-4-yl)pyridine-3-sulfonamide] was tested, and the IC50 was 909 pM.
With Cc1nc(O[C@H]2CC[C@H](c3cc(Cl)cc(C(F)(F)F)c3)C[C@@H]2N(C)C)ccc1S(=O)(=O)Nc1ccncn1 [Example 49, 6-(((1S,2S,4S)-4-(3-chloro-5-(trifluoromethyl)phenyl)-2-(dimethylamino)cyclohexyl)oxy)-2-methyl-N-(pyrimidin-4-yl)pyridine-3-sulfonamide] the IC50 was 188 pM.
O=S(=O)(Nc1ccncn1)c1cnc(O[C@H]2CC[C@H](c3cccc(C(F)(F)F)c3)C[C@@H]2N2CCCC2)c(Cl)c1 [Example 18, 5-chloro-N-(pyrimidin-4-yl)-6-(((1S,2S,4S)-2-(pyrrolidin-1-yl)-4-(3-(trifluoromethyl)phenyl)-cyclohexyl)oxy)pyridine-3-sulfonamide] gave an IC50 of 388 pM.
With O=S(=O)(Nc1ccncn1)c1cnc(O[C@H]2CC[C@H](c3cccc(C(F)(F)F)c3)C[C@@H]2N2CCCCC2)c(Cl)c1 [Example 19, 5-chloro-6-(((1S,2S,4S)-2-(piperidin-1-yl)-4-(3-(trifluoromethyl)phenyl)cyclohexyl)oxy)-N-(pyrimidin-4-yl)pyridine-3-sulfonamide] the IC50 was 281 pM.
For Cc1nc(O[C@H]2CC[C@H](c3cccc(C(F)(F)F)c3)C[C@@H]2N2CCOCC2)ccc1S(=O)(=O)Nc1ccncn1 [Example 55, 2-methyl-6-(((1S,2S,4S)-2-morpholino-4-(3-(trifluoro-methyl)phenyl)cyclohexyl)-oxy)-N-(pyrimidin-4-yl)pyridine-3-sulfonamide], the IC50 was 527 pM.
CN(C)[C@H]1C[C@@H](c2cccc(C(F)(F)F)c2)CC[C@@H]1Oc1ccc(S(=O)(=O)Nc2ccncn2)c(C2CC2)n1 [Example 34, 2-Cyclopropyl-6-(((1S,2S,4S)-2-(dimethylamino)-4-(3-(trifluoromethyl)phenyl)-cyclohexyl)oxy)-N-(pyrimidin-4-yl)pyridine-3-sulfonamide] gave an IC50 of 154000 pM.
With CN(C)[C@H]1C[C@@H](c2cccc(C(F)(F)F)c2)CC[C@@H]1Oc1ncc(S(=O)(=O)Nc2ccncn2)cc1C#N [Example 6, 5-Cyano-6-(((1S,2S,4S)-2-(dimethylamino)-4-(3-(trifluoromethyl)phenyl)cyclohexyl)oxy)-N-(pyrimidin-4-yl)pyridine-3-sulfonamide formate] the IC50 was 3510 pM.
Compound Cc1nc(O[C@H]2CC[C@H](c3cccc(OC(F)(F)F)c3)C[C@@H]2N(C)C)ccc1S(=O)(=O)Nc1ccncn1 [Example 28, 6-(((1S,2S,4S)-2-(Dimethylamino)-4-(3-(trifluoromethoxy)phenyl)cyclohexyl)oxy)-2-methyl-N-(pyrimidin-4-yl)pyridine-3-sulfonamide] has an IC50 of 664 pM.
Cc1ccc(C(F)(F)F)cc1[C@H]1CC[C@H](Oc2ccc(S(=O)(=O)Nc3ccncn3)c(C)n2)[C@@H](N(C)C)C1 [Example 54, 6-(((1S,2S,4S)-2-(dimethyl-amino)-4-(2-methyl-5-(trifluoromethyl)phenyl)-cyclohexyl)oxy)-2-methyl-N-(pyrimidin-4-yl)pyridine-3-sulfonamide] gave an IC50 of 404 pM.
CCN(C)[C@H]1C[C@@H](c2cccc(C(F)(F)F)c2)CC[C@@H]1Oc1ccc(S(=O)(=O)Nc2ccncn2)c(C)n1 [Example 48, 6-(((1S,2S,4S)-2-(Ethyl(methyl)amino)-4-(3-(trifluoromethyl)phenyl)cyclohexyl)oxy)-2-methyl-N-(pyrimidin-4-yl)pyridine-3-sulfonamide] was tested, and the IC50 was 272 pM.
Work on CN(C)[C@H]1C[C@@H](c2cccc(C(F)(F)F)c2)CC[C@@H]1Nc1ncc(S(=O)(=O)Nc2ccncn2)cc1Cl [Example 4, 5-Chloro-6-(((1S,2S,4S)-2-(dimethylamino)-4-(3-(trifluoromethyl)phenyl)cyclohexyl)amino)-N-(pyrimidin-4-yl)pyridine-3-sulfonamide] yielded an IC50 of 765 pM.
CCc1cc(S(=O)(=O)Nc2ccncn2)cnc1O[C@H]1CC[C@H](c2cccc(C(F)(F)F)c2)C[C@@H]1N(C)C [Example 24, 6-(((1S,2S,4S)-2-(Dimethylamino)-4-(3-(trifluoromethyl)phenyl)cyclohexyl)oxy)-5-ethyl-N-(pyrimidin-4-yl)pyridine-3-sulfonamide formate] was tested, and the IC50 was 8330 pM.
In the case of O=S(=O)(Nc1ccncn1)c1ccc(O[C@H]2CC[C@H](c3cccc(OC(F)(F)F)c3)C[C@@H]2N2CCCC2)nc1 [Example 10, N-(pyrimidin-4-yl)-6-(((1S,2S,4S)-2-(pyrrolidin-1-yl)-4-(3-(trifluoromethoxy)phenyl)cyclohexyl)oxy)-pyridine-3-sulfonamide], the IC50 is reported as 5620 pM.
For CCc1nc(O[C@H]2CC[C@H](c3cccc(C(F)(F)F)c3)C[C@@H]2N(C)C)ccc1S(=O)(=O)Nc1ccncn1 [Example 33, 6-(((1S,2S,4S)-2-(Dimethylamino)-4-(3-(trifluoromethyl)phenyl)cyclohexyl)oxy)-2-ethyl-N-(pyrimidin-4-yl)pyridine-3-sulfonamide], the IC50 was 16300 pM.
Compound CCN(CC)[C@H]1C[C@@H](c2cccc(C(F)(F)F)c2)CC[C@@H]1Oc1ccc(S(=O)(=O)Nc2ccncn2)c(C)n1 [Example 47, 6-(((1S,2S,4S)-2-(Diethylamino)-4-(3-(trifluoromethyl)phenyl)cyclohexyl)oxy)-2-methyl-N-(pyrimidin-4-yl)pyridine-3-sulfonamide] has an IC50 of 1730 pM.
